Experimental data taken from EP0192327A2, “Use of phosphonoformic acid and its esters and salts for the manufacture of a medicament for the treatment of AIDS” (THE WELLCOME FOUNDATION LIMITED, priority 1985, dated 1986).

How the values were obtained:
[1] = Toxicity: cytotoxicity in FE-10 cells; type: cell-based; conditions: FE-10 (mouse modified 3T3) cells, no cytotoxicity up to 100µM, read-out: concentrations at which no cytotoxicity was observed
HTLV-III = test: Antiviral activity: protection of target T cells against the cytopathic effects of HTLV-III; type: cell-based; conditions: Human immunodeficiency virus 1, T-cell; target T cells infected with HTLV-III; protection at 10µM and above; read-out: concentrations found to protect target T cells against the cytopathic effects of HTLV-III
Protocol: The compound of formula (1) in which R^1, R^2 and R^3 each represent a hydrogen atom was tested and found to protect target T cells against the cytopathic effects of HTLV-III at concentrations of 10µM and above.

## O=C(O)P(=O)(O)O [phosphonoformic acid]
[1]
  MNTC: ≥ 100 µM
HTLV-III
  minimal effective concentration: ≥ 10 µM
